According to patent US20240374598A1, “INHIBITORS OF HUMAN IMMUNODEFICIENCY VIRUS REPLICATION” (ViiV HEALTHCARE UK (NO.5) LIMITED, priority 2018, published 2024):

Experiments:
[1] = tested on: recombinant NL4-3 virus (nef section replaced with Renilla luciferase gene) in MT-2 cells; test: HIV cell culture assay (antiviral activity, luciferase readout); assay type: cell-based; conditions: NL43, MT-2 cells infected for 4-5 days with recombinant NL4-3 Renilla luciferase virus
Description: HIV cell culture assay—MT-2 cells, 293T cells and the proviral DNA clone of NL4-3 virus were obtained from the NIH AIDS Research and Reference Reagent Program. MT-2 cells were propagated in RPMI 1640 media supplemented with 10% heat inactivated fetal bovine serum (FBS), […]. The 293T cells were propagated in DMEM media supplemented with 10% heat inactivated FBS, […]. A recombinant NL4-3 proviral clone, in which a section of the nef gene was replaced with the Renilla luciferase gene, was used to make the reference virus used in these studies. The recombinant virus was prepared through transfection of the recombinant NL4-3 proviral clone into 293T cells using Transit-293 Transfection Reagent from Mirus Bio LLC (Madison, WI). Supernatent was harvested after 2-3 days and the amount of virus present was titered in MT-2 cells using luciferase enzyme activity as a marker by measuring luciferase enzyme activity. Luciferase was quantitated using the EnduRen Live Cell Substrate from Promega (Madison, WI). Antiviral activities of compounds toward the recombinant virus were quantified by measuring luciferase activity in MT-2 cells infected for 4-5 days with the recombinant virus in the presence of serial dilutions of the compound.
The 50% effective concentration (EC50) was calculated by using the exponential form of the median effect equation where (Fa)=1/[1+(ED50/drug conc.)m] (Johnson VA, Byington RT. Infectivity Assay. In Techniques in HIV Research. ed. Aldovini A, Walker BD. 71-76. New York: Stockton Press. 1990). The 50% inhibitory concentration (EC50) was calculated by using the exponential form of the median effect equation where percent inhibition=1/[1+(EC50/drug concentration)m], where m is a parameter that reflects the slope of the concentration-response curve.

[2] = Compound cytotoxicity, XTT-based colorimetric assay; assay type: cell-based; conditions: human; uninfected MT2 cells, day 4, XTT assay
Description: Compound cytotoxicity and the corresponding CC50 values were determined using the same protocol as described in the antiviral assay except that uninfected cells were used. Cytotoxicity was assessed on day 4 in uninfected MT2 cells by using a XTT (2,3-bis[2-Methoxy-4-nitro-5-sulfophenyl]-2H-tetrazolium-5-carboxyanilide inner salt)-based colorimetric assay (Sigma-Aldrich, St Louis, Mo).

Structure (SMILES)	EC50 [1]	CC50 at 4 day [2]
Cn1nc(NS(C)(=O)=O)c2c(Cl)ccc(-n3c([C@H](Cc4cc(F)cc(F)c4)NC(=O)Cn4nc(C(F)F)c5c4C(F)(F)[C@@H]4C[C@H]54)nc4cc(OCCCF)ccc4c3=O)c21 [Example 9, N—((S)-1-(3-(4-chloro-1-methyl-3-(methylsulfonamido)-1H-indazol-7-yl)-7-(3-fluoropropoxy)-4-oxo-3,4-dihydroquinazolin-2-yl)-2-(3,5-difluorophenyl)ethyl)-2-((3bS,4aR)-3-(difluoromethyl)-5,5-difluoro-3b,4,4a,5-tetrahydro-1H-cyclopropa[3,4]cyclopenta[1,2-c]pyrazol-1-yl)acetamide]	0.049 nM	> 1000 nM
CC(F)(F)c1ccc2c(=O)n(-c3ccc(Cl)c4c(NS(C)(=O)=O)nn(CC(F)F)c34)c([C@H](Cc3cc(F)cc(F)c3)NC(=O)Cn3nc(C(F)F)c4c3C(F)(F)[C@@H]3C[C@H]43)nc2c1 [Example 17, N—((S)-1-(3-(4-chloro-1-(2,2-difluoroethyl)-3-(methylsulfonamido)-1H-indazol-7-yl)-7-(1,1-difluoroethyl)-4-oxo-3,4-dihydroquinazolin-2-yl)-2-(3,5-difluorophenyl)ethyl)-2-((3bS,4aR)-3-(difluoromethyl)-5,5-difluoro-3b,4,4a,5-tetrahydro-1H-cyclopropa[3,4]cyclopenta[1,2-c]pyrazol-1-yl)acetamide]	0.083 nM	> 1000 nM
Cn1nc(NS(C)(=O)=O)c2c(Cl)ccc(-n3c([C@H](Cc4cc(F)cc(F)c4)NC(=O)Cn4nc(C(F)(F)F)c5c4C(F)(F)[C@@H]4C[C@H]54)nc4cc(C(C)(C)C)ccc4c3=O)c21 [Example 26, N—((S)-1-(7-(tert-butyl)-3-(4-chloro-1-methyl-3-(methylsulfonamido)-1H-indazol-7-yl)-4-oxo-3,4-dihydroquinazolin-2-yl)-2-(3,5-difluorophenyl)ethyl)-2-((3bS,4aR)-5,5-difluoro-3-(trifluoromethyl)-3b,4,4a,5-tetrahydro-1H-cyclopropa[3,4]cyclopenta[1,2-c]pyrazol-1-yl)acetamide]	0.443 nM	> 1000 nM
Cn1nc(NS(C)(=O)=O)c2c(Cl)ccc(-n3c([C@H](Cc4cc(F)cc(F)c4)NC(=O)Cn4nc(C(F)F)c5c4C(F)(F)[C@@H]4C[C@H]54)nc4cc(Br)ccc4c3=O)c21 [Example 1, N—((S)-1-(7-bromo-3-(4-chloro-1-methyl-3-(methylsulfonamido)-1H-indazol-7-yl)-4-oxo-3,4-dihydroquinazolin-2-yl)-2-(3,5-difluorophenyl)ethyl)-2-((3bS,4aR)-3-(difluoromethyl)-5,5-difluoro-3b,4,4a,5-tetrahydro-1H-cyclopropa[3,4]cyclopenta[1,2-c]pyrazol-1-yl)acetamide]	0.046 nM	> 1000 nM
CC(C)COc1ccc2c(=O)n(-c3ccc(Cl)c4c(NS(C)(=O)=O)nn(C)c34)c([C@H](Cc3cc(F)cc(F)c3)NC(=O)Cn3nc(C(F)F)c4c3C(F)(F)[C@@H]3C[C@H]43)nc2c1 [Example 12, N—((S)-1-(3-(4-chloro-1-methyl-3-(methylsulfonamido)-1H-indazol-7-yl)-7-isobutoxy-4-oxo-3,4-dihydroquinazolin-2-yl)-2-(3,5-difluorophenyl)ethyl)-2-((3bS,4aR)-3-(difluoromethyl)-5,5-difluoro-3b,4,4a,5-tetrahydro-1H-cyclopropa[3,4]cyclopenta[1,2-c]pyrazol-1-yl)acetamide]	0.109 nM	> 1000 nM
CCC(F)(F)c1ccc2c(=O)n(-c3ccc(Cl)c4c(NS(C)(=O)=O)nn(C)c34)c([C@H](Cc3cc(F)cc(F)c3)NC(=O)Cn3nc(C(F)F)c4c3C(F)(F)[C@@H]3C[C@H]43)nc2c1 [Example 20, N—((S)-1-(3-(4-chloro-1-methyl-3-(methylsulfonamido)-1H-indazol-7-yl)-7-(1,1-difluoropropyl)-4-oxo-3,4-dihydroquinazolin-2-yl)-2-(3,5-difluorophenyl)ethyl)-2-((3bS,4aR)-3-(difluoromethyl)-5,5-difluoro-3b,4,4a,5-tetrahydro-1H-cyclopropa[3,4]cyclopenta[1,2-c]pyrazol-1-yl)acetamide]	0.122 nM	> 1000 nM
O=C(Cn1nc(C(F)F)c2c1C(F)(F)[C@@H]1C[C@H]21)N[C@@H](Cc1cc(F)cc(F)c1)c1nc2cc(CCC(F)(F)F)ccc2c(=O)n1-c1ccc(Cl)c2c(NS(=O)(=O)C3CC3)nn(CC(F)F)c12 [Example 24, N—((S)-1-(3-(4-chloro-3-(cyclopropanesulfonamido)-1-(2,2-difluoroethyl)-1H-indazol-7-yl)-4-oxo-7-(3,3,3-trifluoropropyl)-3,4-dihydroquinazolin-2-yl)-2-(3,5-difluorophenyl)ethyl)-2-((3bS,4aR)-3-(difluoromethyl)-5,5-difluoro-3b,4,4a,5-tetrahydro-1H-cyclopropa[3,4]cyclopenta[1,2-c]pyrazol-1-yl)acetamide]	0.155 nM	> 1000 nM
Cn1nc(NS(C)(=O)=O)c2c(CCC(F)(F)F)ccc(-n3c([C@H](Cc4cc(F)cc(F)c4)NC(=O)Cn4nc(C(F)F)c5c4C(F)(F)[C@@H]4C[C@H]54)nc4cc(CCC(F)(F)F)ccc4c3=O)c21 [Example 22, 2-((3bS,4aR)-3-(difluoromethyl)-5,5-difluoro-3b,4,4a,5-tetrahydro-1H-cyclopropa[3,4]cyclopenta[1,2-c]pyrazol-1-yl)-N—((S)-2-(3,5-difluorophenyl)-1-(3-(1-methyl-3-(methylsulfonamido)-4-(3,3,3-trifluoropropyl)-1H-indazol-7-yl)-4-oxo-7-(3,3,3-trifluoropropyl)-3,4-dihydroquinazolin-2-yl)ethyl)acetamide]	0.573 nM	> 1000 nM
Cn1nc(NS(C)(=O)=O)c2c(Cl)ccc(-n3c([C@H](Cc4cc(F)cc(F)c4)NC(=O)Cn4nc(C(F)F)c5c4C(F)(F)[C@@H]4C[C@H]54)nc4cc(C5CCCCC5)ccc4c3=O)c21 [Example 34, N—((S)-1-(3-(4-chloro-1-methyl-3-(methylsulfonamido)-H-indazol-7-yl)-7-cyclohexyl-4-oxo-3,4-dihydroquinazoin-2-yl)-2-(3,5-difluorophenyl)ethyl)-2-((3bS,4aR)-3-(difluoromethyl)-5,5-difluoro-3b,4,4a,5-tetrahydro-1H-cyclopropa[3,4]cyclopenta[1,2-c]pyrazol-1-yl)acetamide]	0.597 nM	> 1000 nM
Cn1nc(NS(C)(=O)=O)c2c(Cl)ccc(-n3c([C@H](Cc4cc(F)cc(F)c4)NC(=O)Cn4nc(C(F)F)c5c4C(F)(F)[C@@H]4C[C@H]54)nc4cc(CCC(F)(F)F)ccc4c3=O)c21 [Example 21, N—((S)-1-(3-(4-chloro-1-methyl-3-(methylsulfonamido)-1H-indazol-7-yl)-4-oxo-7-(3,3,3-trifluoropropyl)-3,4-dihydroquinazolin-2-yl)-2-(3,5-difluorophenyl)ethyl)-2-((3bS,4aR)-3-(difluoromethyl)-5,5-difluoro-3b,4,4a,5-tetrahydro-1H-cyclopropa[3,4]cyclopenta[1,2-c]pyrazol-1-yl)acetamide]	0.122 nM	> 1000 nM
